For 13 molecules, IC50 results are on record in patent publication US5972956A, “Inhibition of amyloidosis by 9-acridinones” (Warner-Lambert Company, priority 1998, dated 1999).

pIC50: −log10 of the molar value.

For the assay, the target named is T1, beta amyloid peptide (1-40) (Homo sapiens, UniProt P05067).
T1 construct: beta amyloid peptide (1-40)
Briefly: in vitro amyloid aggregation assay (filtration of I125-labeled peptide aggregates). It counts as biochemical. Conditions: beta amyloid peptide (1-40) with I125 labeled peptide, sodium phosphate buffer pH 6.0, 2 hours at room temperature; read-out: IC50, concentration required to cause a 50% inhibition of amyloid aggregation. The method, then: The ability of the 9-acridinone compounds of the above formula to inhibit amyloid aggregation has been established in a standard in vitro assay. The assay is carried out by mixing beta amyloid peptide (1-40) with radioiodinated (I^125) labeled peptide to a concentration of 2.5 mg/mL in hexafluoroisopropanol. The mixture is diluted 1 to 5 with water (v/v). […] of the solution is mixed with 25 μL of 25 mM sodium phosphate buffer pH 6.0. The mixture is allowed to aggregate for 2 hours at room temperature with and without a test compound present. The mixtures are then diluted to 235 μL with phosphate buffer to stop the aggregation process. The solutions are passed through a 0.2-μm millipore filtermat. Aggregated protein remains in the filter well. The filter plate is washed with 50 μL of phosphate buffer and then soaked in solid gel scintillant and counted on a Microbeta counter to determine the amount of aggregation in the presence of a test compound versus control with no test compound.
Several representative 9-acridinone compounds have been evaluated in the above assay and shown to inhibit amyloid aggregation. The following table presents the activity of selected compounds, reported as the molar concentration of compounds required to cause a 50% inhibition (IC50) of amyloid aggregation in the above assay.

T1 sequence (P05067 672-711 limits assumed): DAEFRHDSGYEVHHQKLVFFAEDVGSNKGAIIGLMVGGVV

On to `CCOc1ccc2[nH]c3c([N+](=O)[O-])ccc(NCCN(CCO)CCO)c3c(=O)c2c1` [compound 8], for which the pIC50 is 4.70. Take `CCN(CC)CCNc1ccc([N+](=O)[O-])c2[nH]c3cc(Cl)c(OC)cc3c(=O)c12` [compound 6]: the pIC50 was 4.73.

As to `CSc1ccc2[nH]c3c([N+](=O)[O-])ccc(NCCCN(C)C)c3c(=O)c2c1` [compound 1], the pIC50 was 5.15. As to `CCCCOc1ccc2[nH]c3c([N+](=O)[O-])ccc(NCCN(C)C)c3c(=O)c2c1` [compound 4], the pIC50 was 4.60. To `CCN(CC)CCNc1ccc([N+](=O)[O-])c2[nH]c3ccc(OCCN(CC)CC)cc3c(=O)c12` [compound 7] belongs 4.45. For `CCN(CC)CCNc1ccc([N+](=O)[O-])c2[nH]c3cc(OC)c(OC)cc3c(=O)c12` [compound 3], the pIC50 was 4.96. In the case of `CCN(CC)CCNc1ccc([N+](=O)[O-])c2[nH]c3ccc(OC)cc3c(=O)c12` [compound 10], the pIC50 is 4.86. To `CCOc1ccc2[nH]c3c([N+](=O)[O-])ccc(NC(C)CN(C)C)c3c(=O)c2c1` (stereo not shown) [compound 13] belongs 4.61.

Take `CCN(CC)CCNc1ccc([N+](=O)[O-])c2[nH]c3ccc(SC)cc3c(=O)c12` [compound 2]: the pIC50 is 5.05. In the case of `CCN(CC)CCCNc1ccc([N+](=O)[O-])c2[nH]c3ccc(OC)cc3c(=O)c12` [compound 5] it was 4.68; in that of `CCN(CC)CCNc1ccc([N+](=O)[O-])c2c1c(=O)c1cc(OC)ccc1n2C` [compound 12], 4.63; in that of `CCN(CC)CCNc1ccc([N+](=O)[O-])c2[nH]c3ccccc3c(=O)c12` [compound 11], 4.53. As for `CCN(CC)CCNc1ccc([N+](=O)[O-])c2[nH]c3ccc(O)cc3c(=O)c12` [Compound No. 9], the pIC50 was 4.69.
